Test results from article PMC11820358 (Molecules, 2025).
Entries after “also recorded” stand apart in the source; their conditions may differ. Each block holds one substance with its values, some of them ahead of it.

Tests used:
[1] = system: chymotrypsin; assay: chymotrypsin in HEPES buffer solution (50 mM, pH = 7.4); settings: 37 °C, up to 8 h
[2] = target: T1, chymotrypsin (Bos taurus, UniProt P00766); assay: LC-MS analysis of enzymatic fragments and cleavage sites with chymotrypsin; format: in vitro ADME; set-up: purchased; settings: LC-MS (ESI); HEPES 50 mM pH 7.4, 37 °C, peptide:protease 40:1
Description: To further investigate how glycosylation promotes the enzymatic digestion of D-amino acid-containing peptides, we analyzed the enzymatic cleavage sites of the glycosylated peptides using LC-MS (Figures S6–S14).
(β-D-GalNAc ) (H) in the presence of chymotrypsin. The peptides were dissolved in HEPES
Chymotrypsin was added to the above solution. In which the peptide: protease (ω: ω) = 40:1.
Incubation was performed at 37°C. Method of stopping enzymatic digestion after reaching
reaction time: Chymotrypsin is extinguished with 1% TFA. Each experiment was performed

[3] = target: T1, chymotrypsin; assay: Enzymatic degradation by chymotrypsin, substrate decay followed by HPLC; settings: 37 °C; for Substrate decay rate constant in the presence of chymotrypsin: peptide 0.5 mg/mL in HEPES 50 mM pH 7.4, chymotrypsin 0.5 mg/mL, peptide:protease 40:1 (w/w), stopped with 1% TFA, HPLC-UV 215 nm, fit y=A0×exp(−k1×x), each experiment three times, Figure 7; for Enzymatic degradation by chymotrypsin, compared with 5-t: peptide 0.5 mg/mL, HEPES 50 mM pH 7.4, chymotrypsin 0.5 mg/mL, 40:1 (w/w), up to 8 h, HPLC, three times, Figures 5C, 6
[4] = system: papain; assay: papain in HEPES buffer (50 mM, pH=7.4); settings: 37 °C, up to 8 h
[5] = system: pepsin; assay: pepsin in HEPES buffer (50 mM, pH=7.4); settings: 37 °C, up to 8 h
[6] = target: T2, Proteinase K (PROK) (Parengyodontium album, UniProt P06873); assay: Enzymatic degradation by Proteinase K (PROK), protease resistance; format: in vitro ADME; settings: peptide 0.5 mg/mL in HEPES 50 mM pH 7.4 (600 μL) + PROK 1.5 mg/mL (15.0 μL); 50 °C; 0-8 h; quenched with 1% TFA; HPLC 215 nm; three times; Figure 4
T2 construct: purchased
Description: The peptides were dissolved in HEPES buffer (50 mM, pH = 7.4) to a final concentration of 0.5 mg/mL. Proteinase K (PROK) was prepared in deionized water at a final concentration of 1.5 mg/mL. The peptide solutions (600 μL) were then incubated with PROK solution (15.0 μL) at 50 °C. At 0, 0.5, 1.0, 2.0, 4.0, and 8.0 h intervals, 100 μL of the digestion mixture was taken and quenched with 100 μL of 1% TFA in water. The enzymatic hydrolysis of peptides was monitored by HPLC at 215 nm. Each experiment was performed three times.

[7] = RP-HPLC retention time of peptides (hydrophobicity/polarity); format: physicochemical; settings: chromatographic, C18 reversed phase, 0.1% TFA water/acetonitrile, gradient 10-50% solvent B over 30 min, 1 mL/min, UV; used as measure of hydrophobicity/polarity; Figure 3D
Description: Purification was performed on a ZORBAX Eclipse XDB-C18 reversed-phase column (5 μm, 9.4 × 250 mm, Agilent, Santa Clara, CA, USA) using solvent A (0.1% TFA in water) and solvent B (0.1% TFA in acetonitrile). Elution was performed at a flow rate of 1 mL/min with a gradient of 10–50% solvent B over 30 min, and detection was carried out using a UV detector at 220 nm. All purified peptide samples were freeze-dried to yield a white powder.

T2 sequence (P06873 106-384): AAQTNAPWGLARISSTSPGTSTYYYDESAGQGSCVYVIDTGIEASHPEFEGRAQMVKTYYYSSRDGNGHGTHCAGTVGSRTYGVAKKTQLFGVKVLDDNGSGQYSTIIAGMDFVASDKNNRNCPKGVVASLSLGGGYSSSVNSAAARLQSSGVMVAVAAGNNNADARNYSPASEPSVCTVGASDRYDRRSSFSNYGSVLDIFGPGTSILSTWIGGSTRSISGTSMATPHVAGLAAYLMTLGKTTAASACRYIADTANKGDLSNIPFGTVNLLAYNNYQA

Substance: KTNE(t-β-D-Gal-NAc)WRSED
- cleaved bond [1]: Arg7-Ser8

Substance: KTNE(t-β-D-Gal-NAc)WRSED [5-t-(β-D-GalNAc)]
- Cleavage sites in the presence of chymotrypsin [2]: Tyr2-Asn3, Arg7-Ser8
- Enzymatic fragments in the presence of chymotrypsin [2]: KY, NE-(t-β-D-GalNAc)-WR, NE-(t-β-D-Gal-NAc)-WRSED, SED
- Substrate decay rate constant in the presence of chymotrypsin [3]: 0.106 h⁻¹

Substance: KYNE(t-β-D-Gal)WRSED [5-t-(β-D-Gal)]
- Cleavage sites in the presence of chymotrypsin [2]: Tyr2-Asn3, Arg7-Ser8
- Enzymatic fragments in the presence of chymotrypsin [2]: KY, NE-(t-β-D-Gal)-WR, NE-(t-β-D-Gal)-WRSED, SED

Substance: KYNE(t-β-D-Glc)WRSED
- cleaved bond [1]: Tyr2-Asn3; also recorded: Arg7-Ser8
- not cleaved [4]: no enzymatic degradation; substrate molar fraction 1.0 at 8 h
- not cleaved [5]: no enzymatic degradation; substrate molar fraction 1.0 at 8 h

Substance: KYNE(t-β-D-Glc)WRSED [5-t-(β-D-Glc)]
- Cleavage sites in the presence of chymotrypsin [2]: Tyr2-Asn3, Arg7-Ser8
- Enzymatic fragments in the presence of chymotrypsin [2]: KY, NE-(t-β-D-Glc)-WR, NE-(t-β-D-Glc)-WRSED, SED
- Enzymatic degradation by PROK, substrate decay curves compared [6]: nearly identical

Substance: KYNE(t-β-D-Rib)WRSED
- cleaved bond [1]: Tyr2-Asn3; also recorded: Arg7-Ser8

Substance: KYNE(t-β-D-Rib)WRSED [5-t-(β-D-Rib)]
- Cleavage sites in the presence of chymotrypsin [2]: Tyr2-Asn3, Arg7-Ser8
- Enzymatic fragments in the presence of chymotrypsin [2]: KY, KYNE-(t-β-D-Rib)-WR, NE-(t-β-D-Rib)-WR, NE-(t-β-D-Rib)-WRSED, SED
- Substrate decay rate constant in the presence of chymotrypsin [3]: 0.187 h⁻¹
- Enzymatic degradation by chymotrypsin, compared with 5-t [3]: digested more efficiently than 5-t

Substance: KYNE(t-β-L-Rib)WRSED
- cleaved bond [1]: Tyr2-Asn3; also recorded: Arg7-Ser8

Substance: KYNE(t-β-L-Rib)WRSED [5-t-(β-L-Rib)]
- Cleavage sites in the presence of chymotrypsin [2]: Tyr2-Asn3, Arg7-Ser8
- Enzymatic fragments in the presence of chymotrypsin [2]: KY, KYNE(t-β-L-Rib)-WR, NE-(t-β-L-Rib)-WR, NE-(t-β-L-Rib)-WRSED, SED
- Enzymatic degradation by PROK, substrate decay curves compared [6]: more pronounced inhibitory effect on peptide enzymatic degradation compared to D-ribose
- Substrate decay rate constant in the presence of chymotrypsin [3]: 0.144 h⁻¹
- Enzymatic degradation by chymotrypsin, compared with 5-t [3]: digested more efficiently than 5-t

Substance: KYNEtWR(S-β-D-Glc)ED [5-t-(S-β-D-Glc)]
- Cleavage sites in the presence of chymotrypsin [2]: Tyr2-Asn3, Arg7-Ser8
- Enzymatic fragments in the presence of chymotrypsin [2]: KY, KYNE-t-WR, NE-t-WR, NE-t-WR-(S-β-D-Glc)-ED, (S-β-D-Glc)-ED
- Enzymatic degradation by PROK, substrate decay curves compared [6]: higher than that of 5-t-(β-D-Glc)

Substance: KYNEtWRSED [5-t]
- Cleavage sites in the presence of chymotrypsin [2]: Tyr2-Asn3, Arg7-Ser8
- Enzymatic fragments in the presence of chymotrypsin [2]: KY, NE-t-WR, NE-t-WRSED, SED
- Substrate decay rate constant in the presence of chymotrypsin [3]: 0.103 h⁻¹

Continued, in another order:

- cleaved bond [1]: Arg7-Ser8; also recorded: Tyr2-Asn3
Substance: KYNE(t-α-D-Glc)WRSED

- Cleavage sites in the presence of chymotrypsin [2]: Tyr2-Asn3, Arg7-Ser8
Substance: KYNE(t-α-D-Glc)WRSED [5-t-(α-D-Glc)]
- Enzymatic fragments in the presence of chymotrypsin [2]: KY, NE-(t-α-D-Glc)-WR, NE-(t-α-D-Glc)-WRSED, SED

- cleaved bond [1]: Tyr2-Asn3; also recorded: Arg7-Ser8
Substance: KYNE(t-β-D-Gal)WRSED

- cleaved bond [1]: Tyr2-Asn3; also recorded: Arg7-Ser8
Substance: KYNE(t-β-D-Glc)WR(S-β-D-Glc)ED

- Retention time in RP-HPLC [7]: 21.481 min
Substance: KYNE(t-β-D-Glc-Ac4)WRSED [5-t-(β-D-Glc-Ac4)]

- cleaved bond [1]: Tyr2-Asn3; also recorded: Arg7-Ser8
Substance: KYNEtWR(S-β-D-Glc)ED

- cleaved bond [1]: Tyr2-Asn3; also recorded: Arg7-Ser8
Substance: KYNEtWRSED
- not cleaved [4]: no enzymatic degradation; substrate molar fraction 1.0 at 8 h
- not cleaved [5]: no enzymatic degradation; substrate molar fraction 1.0 at 8 h
